Consider twelve compounds from PubChem BioAssay (NCI).

Test systems include UO-31 renal; SF-295 CNS; OVCAR-5 ovarian; SF-268 CNS; IGROV1 ovarian; MALME-3M melanoma; EKVX NSCLC; KM12 colon; TK-10 renal; U251 CNS.
Common to all, as to assay: inhibition of tumour cell growth, NCI panel, 48 h

SMILES strings stand for the structures.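 Grown in 96-well plates, cells were treated for 48 hours with each compound at five concentrations. Insufficient inhibition: endpoint recorded as highest concentration tested. Here, GI50 denotes the concentration required for 50% inhibition of growth. The concentration for full growth arrest is given as TGI.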 Some results are limits rather than exact numbers.

In the case of `COc1ccc(C2CC(c3cccc(Nc4ccncc4)c3)=NN2c2ccc(Cl)cc2)cc1` (centres undefined), the GI50 in the assay with UO-31 renal is 1.2 µM; in the assay with SF-295 CNS, 1.85 µM; with OVCAR-5 ovarian, 1.76 µM; in the assay with SF-268 CNS it was 1.72 µM; with IGROV1 ovarian it was 1.68 µM; with MALME-3M melanoma, 1.59 µM. In addition, the figures for the GI50 in the assay with EKVX NSCLC, in the assay with KM12 colon and in the assay with TK-10 renal were 1.66 µM, 1.72 µM and 1.82 µM, respectively. Further, the TGI in the assay on UO-31 renal came out at 2.51 µM; with SF-295 CNS it was 3.3 µM; with OVCAR-5 ovarian it was 3.68 µM; in the assay with SF-268 CNS it was 3.43 µM; in the assay on IGROV1 ovarian, 3.28 µM; in the assay with MALME-3M melanoma, 3.15 µM. For the same compound, the TGI in the assay on EKVX NSCLC was determined as 3.27 µM; in the assay with KM12 colon, 3.37 µM; in the assay on TK-10 renal it was 3.5 µM.
As for `O=Cc1cc([N+](=O)[O-])no1`, the TGI in the assay on UO-31 renal was greater than 100 µM; in the assay with SF-295 CNS, greater than 100 µM; in the assay on OVCAR-5 ovarian, greater than 100 µM; in the assay on U251 CNS, greater than 100 µM; in the assay with IGROV1 ovarian, greater than 100 µM; in the assay with KM12 colon, 54.2 µM. In the assay on TK-10 renal, this compound showed a TGI greater than 100 µM.
In the case of `CS(=O)(=O)OC1CN2CCC1CC2` (centres undefined), the TGI with UO-31 renal, with SF-295 CNS, with OVCAR-5 ovarian, in the assay with U251 CNS, with SF-268 CNS and in the assay on IGROV1 ovarian was greater than 100 µM throughout. For the same compound, the TGI in the assay with MALME-3M melanoma, in the assay on EKVX NSCLC, in the assay with KM12 colon and with TK-10 renal was greater than 100 µM each time.
With `Cc1cccc2cc3c(ccc4ccccc43)c[n+]12`, the TGI in the assay with UO-31 renal is greater than 100 µM; in the assay on SF-295 CNS, 41.5 µM; with OVCAR-5 ovarian it was greater than 100 µM; with U251 CNS, 40.6 µM; with SF-268 CNS it was 14.2 µM; with IGROV1 ovarian, greater than 100 µM. Also, the TGI with MALME-3M melanoma was 5.22 µM; in the assay on EKVX NSCLC, greater than 100 µM; with KM12 colon, 32 µM; in the assay on TK-10 renal, greater than 100 µM.
In the case of `CCN1C=C/C(=C\C=C/c2cc[n+](CC)c3ccccc23)c2ccccc21`, the TGI stood at 35.6 µM with UO-31 renal; 12.5 µM in the assay with SF-295 CNS; 15.1 µM in the assay on OVCAR-5 ovarian; 13 µM with U251 CNS; 19.6 µM in the assay with SF-268 CNS; 12.4 µM with IGROV1 ovarian. For the same compound, the TGI with MALME-3M melanoma came to 30.5 µM; with EKVX NSCLC, 47 µM; with KM12 colon it was 12.4 µM; with TK-10 renal, 28.1 µM.
For `CN(c1cc2ncc(=O)[nH]c2cc1NC(N)=NCc1ccc(Cl)cc1)C1CCCCC1`, the GI50 in the assay on UO-31 renal is 8.21 µM; in the assay on SF-295 CNS, 7.42 µM; in the assay with OVCAR-5 ovarian, 6.58 µM; in the assay on U251 CNS it was 5.96 µM; in the assay on SF-268 CNS, 6.89 µM; in the assay on IGROV1 ovarian, 6.93 µM. Also, the GI50 in the assay on MALME-3M melanoma is 8.5 µM; in the assay with EKVX NSCLC it was 6.65 µM; in the assay with KM12 colon, 4.52 µM; with TK-10 renal it was 7.44 µM. The TGI in the assay with UO-31 renal stood at 15.8 µM; in the assay with SF-295 CNS it was 14.9 µM; in the assay with OVCAR-5 ovarian it was 14.1 µM; in the assay on U251 CNS it was 13.4 µM; in the assay on SF-268 CNS, 14.7 µM; in the assay on IGROV1 ovarian, 15 µM. Besides, the TGI came to 17.5 µM in the assay on MALME-3M melanoma, 14.5 µM in the assay with EKVX NSCLC, 10.9 µM in the assay on KM12 colon and 15.2 µM in the assay on TK-10 renal.
In the case of `Nc1cc2c(nnn2C2OC(COCc3ccccc3)C(OCc3ccccc3)C2OCc2ccccc2)c(=O)[nH]1` (centres undefined), the TGI in the assay on UO-31 renal, with SF-295 CNS, with OVCAR-5 ovarian, in the assay on U251 CNS, in the assay with SF-268 CNS and in the assay with IGROV1 ovarian was greater than 100 µM in each case. The TGI in the assay with MALME-3M melanoma is greater than 100 µM; in the assay with EKVX NSCLC, 46.1 µM; in the assay with KM12 colon, 54.6 µM; with TK-10 renal, 52.1 µM.
`CCCCCCNC(=O)c1cc(CCc2cc(O)ccc2O)ccc1O`: the TGI in the assay with UO-31 renal was 2.98 µM; in the assay with SF-295 CNS, 31.3 µM; in the assay with OVCAR-5 ovarian it was 19.3 µM; in the assay with U251 CNS, 5.58 µM; in the assay on SF-268 CNS, 9.9 µM; with IGROV1 ovarian, 5.66 µM. Besides, the TGI turned out to be 6.47 µM in the assay with MALME-3M melanoma, 15.8 µM with EKVX NSCLC, 39.6 µM in the assay with KM12 colon and 9.15 µM in the assay with TK-10 renal.
Regarding `O=S1(=O)C(c2ccccc2)C(N2CCCCC2)C1C1CC2c3ccccc3C1c1ccccc12` (centres undefined), the TGI in the assay on UO-31 renal, in the assay on SF-295 CNS, in the assay on OVCAR-5 ovarian, with U251 CNS, in the assay on SF-268 CNS and in the assay on IGROV1 ovarian was greater than 100 µM each time. Moreover, the TGI with MALME-3M melanoma, in the assay on EKVX NSCLC, with KM12 colon and with TK-10 renal was greater than 100 µM each time.
For the compound `CO/C=C(/C(=O)OC)c1ccccc1[C@@H]1CC1c1cccc(F)c1` (some centres undefined), the TGI in the assay on UO-31 renal is greater than 100 µM; in the assay on SF-295 CNS, greater than 100 µM; in the assay with OVCAR-5 ovarian, greater than 100 µM; with U251 CNS, greater than 100 µM; in the assay on SF-268 CNS, greater than 100 µM; with IGROV1 ovarian, 62.8 µM. The TGI with MALME-3M melanoma is 45.9 µM; with EKVX NSCLC it was 88.1 µM; in the assay with KM12 colon it was 83.9 µM; in the assay with TK-10 renal it was greater than 100 µM.
For the compound `CCOC(=O)C[C@@H]1C2(C=C[C@@]13CO3)OCC(C)(C)CO2`, the TGI in the assay with UO-31 renal, with SF-295 CNS, in the assay with OVCAR-5 ovarian, in the assay with U251 CNS, with SF-268 CNS and with IGROV1 ovarian was greater than 100 µM in each case. The TGI in the assay on MALME-3M melanoma, in the assay with EKVX NSCLC and in the assay with TK-10 renal was greater than 100 µM in each case.
For `Cc1ccc(NP(=O)(Oc2ccccc2)N(CCCl)CCCl)cc1` (centres undefined), the TGI in the assay with UO-31 renal, with SF-295 CNS, in the assay on OVCAR-5 ovarian, with U251 CNS, in the assay with SF-268 CNS and in the assay on IGROV1 ovarian was greater than 100 µM in each case. Also, the TGI with MALME-3M melanoma, in the assay on EKVX NSCLC, with KM12 colon and with TK-10 renal was greater than 100 µM throughout.
